SMILES strings stand for the structures. Active and inactive are the calls of the source. The rule behind the calls is not given here.

This passage reports inhibition, IC50 and Activity results from ChEMBL document CHEMBL1821570, “Inhibition of the helicase activity of the HCV NS3 protein by symmetrical dimeric bis-benzimidazoles” (Bioorg Med Chem Lett, 2011).

The subject of experiment [1] is Hepacivirus hominis. The experiment is described as follows: Inhibition of recombinant hepatitis C virus NS3 helicase domain NTPase activity by TLC.
Experiment [2] is described as follows: Inhibition of recombinant hepatitis C virus NS3 helicase domain using DNA duplex S(DB11) labelled with [gamma-32P]ATP as substrate after 30 mins. More on the design: species or system Hepacivirus hominis.
Experiment [3] is described as follows: Inhibition of recombinant hepatitis C virus NS3 helicase domain using DNA duplex S(DB2)b labelled with [gamma-32P]ATP as substrate after 30 mins. More on the design: species or system Hepacivirus hominis.
The nature of experiment [4]: Inhibition of recombinant hepatitis C virus NS3 helicase domain using DNA duplex S(DB2)a labelled with [gamma-32P]ATP as substrate after 30 mins. More on the design: species or system Hepacivirus hominis.
The nature of experiment [5]: Inhibition of recombinant hepatitis C virus NS3 helicase domain using DNA duplex SM1 labelled with [gamma-32P]ATP as substrate after 30 mins. More on the design: species or system Hepacivirus hominis.
A short description of experiment [6]: Inhibition of recombinant hepatitis C virus NS3 helicase domain using DNA duplex S1 labelled with [gamma-32P]ATP as substrate after 30 mins. More on the design: species or system Hepacivirus hominis.
In experiment [7] the test system is Hepacivirus hominis. The experiment is described as follows: Inhibition of recombinant hepatitis C virus NS3 helicase domain NTPase activity at 400 uM by TLC in presence of poly(U).
The nature of experiment [8]: Inhibition of recombinant hepatitis C virus NS3 helicase domain NTPase activity by TLC in presence of poly(U). More on the design: species or system Hepacivirus hominis.
Experiment [9] relates to Hepacivirus hominis. The experiment is described as follows: Enhancement of binding efficacy between compound-treated recombinant hepatitis C virus NS3 helicase and 32P-labelled SM1 DNA duplex after 10 mins.
The subject of experiment [10] is Hepacivirus hominis. As to the kind of experiment: Inhibition of recombinant hepatitis C virus NS3 helicase domain assessed as the enzyme concentration at which a half of compound molecules are bound by PTI spectrofluorimetry.
The test system of experiment [11] is Hepacivirus hominis. As to the kind of experiment: Inhibition of recombinant hepatitis C virus NS3 helicase domain by PTI spectrofluorimetry.
The nature of experiment [12]: Inhibition of recombinant hepatitis C virus NS3 helicase domain using RNA duplex rSM2 labelled with [gamma-32P]ATP as substrate after 30 mins. More on the design: species or system Hepacivirus hominis.
Experiment [13] is described as follows: Inhibition of recombinant hepatitis C virus NS3 helicase domain using DNA duplex SM2 labelled with [gamma-32P]ATP as substrate after 30 mins. More on the design: species or system Hepacivirus hominis.
For experiment [14], the system named is Hepacivirus hominis. The experiment is described as follows: Inhibition of recombinant hepatitis C virus NS3 helicase domain using DNA duplex S(DB11) labelled with [gamma-32P]ATP as substrate up to 400 after 30 mins.
In experiment [15] the test system is Hepacivirus hominis. The experiment is described as follows: Inhibition of recombinant hepatitis C virus NS3 helicase domain using DNA duplex S(DB2)b labelled with [gamma-32P]ATP as substrate up to 400 after 30 mins.
Experiment [16] relates to Hepacivirus hominis. As to the kind of experiment: Inhibition of recombinant hepatitis C virus NS3 helicase domain using DNA duplex S(DB2)a labelled with [gamma-32P]ATP as substrate up to 400 after 30 mins.
In experiment [17] the test system is Hepacivirus hominis. As to the kind of experiment: Inhibition of recombinant hepatitis C virus NS3 helicase domain using DNA duplex SM1 labelled with [gamma-32P]ATP as substrate up to 400 after 30 mins.
Experiment [18] deals with Hepacivirus hominis. The experiment is described as follows: Inhibition of recombinant hepatitis C virus NS3 helicase domain using DNA duplex S1 labelled with [gamma-32P]ATP as substrate up to 400 after 30 mins.

A word on the IC50: it is the concentration at which inhibition is half-maximal. Consider `CN(CCCOc1ccc(-c2nc3ccc(-c4nc5ccc(N6CCN(C)CC6)cc5[nH]4)cc3[nH]2)cc1)CCCOc1ccc(-c2nc3ccc(-c4nc5ccc(N6CCN(C)CC6)cc5[nH]4)cc3[nH]2)cc1`, for which the inhibition result in the experiment on Hepacivirus hominis [1] was “inactive”. Besides, the IC50 was 15 µM in experiment [2]; 10 µM in experiment [3]; 12 µM in experiment [4]; 18 µM in experiment [5]; 5 µM in experiment [6].
`CN1CCN(c2ccc3nc(-c4ccc5nc(CNC(=O)CCCCCCCCCCCC(=O)NCc6nc7ccc(-c8nc9ccc(N%10CCN(C)CC%10)cc9[nH]8)cc7[nH]6)[nH]c5c4)[nH]c3c2)CC1`: the inhibition result with Hepacivirus hominis [7] and in the experiment on Hepacivirus hominis [1] was “inactive” each time. The IC50 in experiment [8] worked out at 20 µM; in experiment [12], 1.4 µM; in experiment [13], 9 µM; in [2], 8 µM; in experiment [3], 12 µM; in experiment [4], 7 µM. The figures for the 50% inhibitory concentration (IC50) in [5] and in experiment [6] were 7 µM and 10 µM, respectively. The result in the experiment with Hepacivirus hominis [9] was Active. Besides, the Activity in the experiment with Hepacivirus hominis [10] was found to be 7.3 µM. For the same molecule, the inhibition result with Hepacivirus hominis [11] is “Active”.
Take `CC(=O)NCc1nc2ccc(-c3nc4ccc(N5CCN(C)CC5)cc4[nH]3)cc2[nH]1`: the inhibition result in the experiment with Hepacivirus hominis [1], in the experiment on Hepacivirus hominis [14], with Hepacivirus hominis [15], with Hepacivirus hominis [16], in the experiment with Hepacivirus hominis [17] and with Hepacivirus hominis [18] was “inactive” in each case.
On to `CN1CCN(c2ccc3nc(-c4ccc5nc(CNC(=O)CCC(=O)NCc6nc7ccc(-c8nc9ccc(N%10CCN(C)CC%10)cc9[nH]8)cc7[nH]6)[nH]c5c4)[nH]c3c2)CC1`, for which the inhibition result in the experiment with Hepacivirus hominis [7], with Hepacivirus hominis [1] and in the experiment on Hepacivirus hominis [11] was “inactive” throughout. Further, the IC50 in experiment [8] amounted to 280 µM; in [12] it was 38 µM; in experiment [13] it was 240 µM; in [2] it was 240 µM; in [3], 260 µM; in experiment [4], 250 µM. Further, the IC50 in experiment [5] is 230 µM; in experiment [6], > 100 µM. Besides, the outcome in the experiment with Hepacivirus hominis [9] was inactive. Further, the Activity with Hepacivirus hominis [10] worked out at 51 µM.
With `CN1CCN(c2ccc3[nH]c(-c4ccc5[nH]c(-c6ccc(O)cc6)nc5c4)nc3c2)CC1`, the inhibition entry in the experiment on Hepacivirus hominis [1], in the experiment with Hepacivirus hominis [14], in the experiment on Hepacivirus hominis [15], with Hepacivirus hominis [16], in the experiment with Hepacivirus hominis [17] and with Hepacivirus hominis [18] was “inactive” in each case.
`CN1CCN(c2ccc3nc(-c4ccc5nc(CNC(=O)CCCCCC(=O)NCc6nc7ccc(-c8nc9ccc(N%10CCN(C)CC%10)cc9[nH]8)cc7[nH]6)[nH]c5c4)[nH]c3c2)CC1`: the inhibition result in the experiment with Hepacivirus hominis [1] is “inactive”. The IC50 in experiment [2] was 160 µM; in [3], 200 µM; in experiment [4], 150 µM; in experiment [5], 225 µM; in experiment [6] it was > 100 µM.
With `CN1CCN(c2ccc3nc(-c4ccc5nc(CNC(=O)CCCC(=O)NCc6nc7ccc(-c8nc9ccc(N%10CCN(C)CC%10)cc9[nH]8)cc7[nH]6)[nH]c5c4)[nH]c3c2)CC1`, the inhibition entry in the experiment with Hepacivirus hominis [1] was “inactive”. The half-inhibitory concentration (IC50) in experiment [2] is 230 µM; in [3], 250 µM; in experiment [4] it was 220 µM; in [5], 235 µM; in [6], > 100 µM.
On to `CN1CCN(c2ccc3nc(-c4ccc5nc(CNC(=O)CCCCCCCC(=O)NCc6nc7ccc(-c8nc9ccc(N%10CCN(C)CC%10)cc9[nH]8)cc7[nH]6)[nH]c5c4)[nH]c3c2)CC1`, for which the inhibition result with Hepacivirus hominis [1] is “inactive”. For the same molecule, the IC50 in experiment [2] is 140 µM; in experiment [3] it was 140 µM; in experiment [4], 150 µM; in experiment [5] it was 210 µM; in experiment [6], > 100 µM.
For `CN1CCN(c2ccc3nc(-c4ccc5nc(CNC(=O)CCCCC(=O)NCc6nc7ccc(-c8nc9ccc(N%10CCN(C)CC%10)cc9[nH]8)cc7[nH]6)[nH]c5c4)[nH]c3c2)CC1`, the inhibition entry in the experiment with Hepacivirus hominis [1] is “inactive”. In addition, the IC50 in experiment [2] was 170 µM; in experiment [3], 240 µM; in experiment [4] it was 150 µM; in experiment [5] it was 230 µM.
